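Growth conditions: 96-well plates. Treatment: test compound, 48 hours, 5 concentrations. Analysis: linear interpolation between bracketing concentrations; unreached endpoints set to highest concentration. GI50 is the concentration that inhibits growth by half. The concentration for full growth arrest is given as TGI.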 Some results are limits rather than exact numbers.

Test systems include OVCAR-5 ovarian; OVCAR-3 ovarian; A498 renal; MALME-3M melanoma; HCT-116 colon; CCRF-CEM leukemia; HOP-62 NSCLC; SNB-19 CNS; HCC-2998 colon; MDA-MB-231 breast.
Common to all, as to assay: inhibition of tumour cell growth, NCI panel, 48 h

For `COc1ccc2c(c1)c(-c1nc(-c3cn(C)c4ncccc34)cs1)cn2CCCCN1CCCCC1`, the GI50 in the assay on OVCAR-5 ovarian was 1.65 µM; in the assay with OVCAR-3 ovarian, 1.7 µM; in the assay with A498 renal, 1.66 µM. The TGI in the assay on OVCAR-5 ovarian turned out to be 3.08 µM; with OVCAR-3 ovarian, 3.15 µM; in the assay with A498 renal it was 3.11 µM.
For the compound `CCn1c(O)c(C(=O)Nc2cccs2)c(=O)n(CC)c1=S`, the TGI in the assay with MALME-3M melanoma is 38.6 µM; in the assay with OVCAR-5 ovarian, 61.5 µM; in the assay on HCT-116 colon, 37.3 µM; with CCRF-CEM leukemia, more than 100 µM; with HOP-62 NSCLC it was 47.6 µM; in the assay on OVCAR-3 ovarian, 32.2 µM. The TGI in the assay on A498 renal was found to be 36.8 µM; in the assay on SNB-19 CNS, 48 µM.
`Cc1c(Cl)ccc2[s+]snc12`: the TGI is more than 100 µM with MALME-3M melanoma; more than 100 µM in the assay on HCC-2998 colon; more than 100 µM with OVCAR-5 ovarian; 59 µM with HCT-116 colon; 82.6 µM in the assay with CCRF-CEM leukemia; more than 100 µM in the assay on HOP-62 NSCLC. In addition, the TGI in the assay on OVCAR-3 ovarian, in the assay on A498 renal and in the assay with SNB-19 CNS was more than 100 µM throughout.
With `Cc1cc2c(=O)cc(-c3ccncc3)oc2c(C(N)=O)c1C`, the TGI in the assay with MALME-3M melanoma, in the assay on HCC-2998 colon, in the assay on OVCAR-5 ovarian, with HCT-116 colon, with CCRF-CEM leukemia and in the assay on HOP-62 NSCLC was more than 100 µM each time. In addition, the TGI in the assay with OVCAR-3 ovarian and in the assay with SNB-19 CNS was more than 100 µM in each case.
Consider `O=C(NC(=Nc1ccccc1)SCCSC(=Nc1ccccc1)NC(=O)c1ccccc1)c1ccccc1`, for which the TGI in the assay with MALME-3M melanoma, with HCC-2998 colon, in the assay with OVCAR-5 ovarian, in the assay on HCT-116 colon, in the assay on CCRF-CEM leukemia and with HOP-62 NSCLC was more than 100 µM throughout. Moreover, the TGI with OVCAR-3 ovarian, in the assay on A498 renal and in the assay on SNB-19 CNS was more than 100 µM each time.
Consider `CC(=O)Nc1ccc(/C=C/C(=O)c2sc(-n3nc(-c4ccccc4)cc3-c3ccccc3)nc2C)cc1`, for which the GI50 with MALME-3M melanoma, with HCC-2998 colon, in the assay on HCT-116 colon, in the assay on CCRF-CEM leukemia, in the assay on HOP-62 NSCLC and in the assay on OVCAR-3 ovarian was more than 100 µM each time. Besides, the GI50 with A498 renal and in the assay on SNB-19 CNS was more than 100 µM in each case. In addition, the TGI with MALME-3M melanoma, in the assay with HCC-2998 colon, in the assay on HCT-116 colon, in the assay on CCRF-CEM leukemia, with HOP-62 NSCLC and with OVCAR-3 ovarian was more than 100 µM each time. Besides, the TGI in the assay on A498 renal and in the assay on SNB-19 CNS was more than 100 µM throughout.
For `O=C(c1ccccc1)N1CCc2c([nH]c3ccccc23)C1`, the TGI in the assay on MALME-3M melanoma, in the assay on HCC-2998 colon, with OVCAR-5 ovarian, with HCT-116 colon, in the assay with CCRF-CEM leukemia and with HOP-62 NSCLC was more than 100 µM throughout. Besides, the TGI in the assay with OVCAR-3 ovarian and in the assay on SNB-19 CNS was more than 100 µM in each case.
On to `CCOc1ccc(-c2nc3ccc(-c4nc5ccc(N6CCN(C)CC6)cc5[nH]4)cc3[nH]2)cc1OCC`, for which the GI50 in the assay with MALME-3M melanoma is 0.222 µM; in the assay with OVCAR-5 ovarian, 4.37 µM; in the assay with HCT-116 colon, 0.529 µM; in the assay with CCRF-CEM leukemia, 2.04 µM; in the assay on HOP-62 NSCLC, 2.86 µM; with OVCAR-3 ovarian, 0.648 µM. Besides, the GI50 in the assay on MDA-MB-231 breast was 2.25 µM; with A498 renal, 1.51 µM; in the assay with SNB-19 CNS it was 2 µM. The TGI came out at 1.23 µM in the assay on MALME-3M melanoma; 14.2 µM in the assay with OVCAR-5 ovarian; 2.72 µM with HCT-116 colon; 22.8 µM in the assay with CCRF-CEM leukemia; 7.52 µM with HOP-62 NSCLC; 2.63 µM with OVCAR-3 ovarian. The figures for the TGI in the assay on MDA-MB-231 breast, in the assay on A498 renal and with SNB-19 CNS were 7.09 µM, 4.58 µM and 11.1 µM, respectively.
`COc1cc(/C=C(\C#N)C(=O)c2ccccc2)cc(OC)c1OC`: the TGI with MALME-3M melanoma, in the assay on HCC-2998 colon, in the assay on OVCAR-5 ovarian, in the assay on HCT-116 colon, in the assay on CCRF-CEM leukemia and in the assay on HOP-62 NSCLC was more than 100 µM in each case. For the same compound, the TGI in the assay on OVCAR-3 ovarian and in the assay on SNB-19 CNS was more than 100 µM throughout.
With `COC(=O)N1C=Cc2c(c(C)c3c([nH]c4ccccc43)c2C)C1C` (configuration not stated), the TGI in the assay with MALME-3M melanoma turned out to be 36.3 µM; in the assay with HCC-2998 colon, 32.1 µM; with OVCAR-5 ovarian, 34.5 µM; in the assay with HCT-116 colon, 25.6 µM; with CCRF-CEM leukemia, 54.4 µM; in the assay on HOP-62 NSCLC, 34.5 µM. Moreover, the TGI in the assay with OVCAR-3 ovarian stood at 30.9 µM; with A498 renal it was 28.8 µM; in the assay on SNB-19 CNS, 35.6 µM.
Consider `CCCCCCCCCCCCCCCCCCCCCCC(=O)N[C@H]1CCc2cc(OC)c(OC)c(OC)c2-c2ccc(SC)c(=O)cc21`, for which the TGI in the assay with MALME-3M melanoma is more than 100 µM; in the assay with HCC-2998 colon it was 65.9 µM; in the assay on OVCAR-5 ovarian, more than 100 µM; in the assay with HCT-116 colon, 69.3 µM; in the assay on CCRF-CEM leukemia, more than 100 µM; in the assay on HOP-62 NSCLC, more than 100 µM. The values for the TGI in the assay with OVCAR-3 ovarian, with A498 renal and with SNB-19 CNS were 60.4 µM, 40.7 µM and more than 100 µM, respectively.
Turning to `O=C(Nc1cc(Cl)ccc1Cl)c1cc2ccccc2oc1=O`, the TGI is 90.3 µM in the assay with MALME-3M melanoma; more than 100 µM with HCT-116 colon; more than 100 µM with CCRF-CEM leukemia; more than 100 µM with HOP-62 NSCLC; more than 100 µM in the assay on OVCAR-3 ovarian.
`O=c1ccn([C@@H]2C[C@H](CO)CS(=O)C2)c(=O)[nH]1` (some centres not stated): the TGI in the assay on MALME-3M melanoma, with HCC-2998 colon, with HCT-116 colon, in the assay on CCRF-CEM leukemia, with HOP-62 NSCLC and in the assay on OVCAR-3 ovarian was more than 100 µM each time. The TGI with A498 renal and with SNB-19 CNS was more than 100 µM each time.
Consider `CCC[CH2][Sn]1([CH2]CCC)[O]C(=O)c2cccnc2[S]1`, for which the GI50 with MALME-3M melanoma is 1.49 µM; in the assay with HCC-2998 colon it was 2.39 µM; with HCT-116 colon, 5.56 µM; with CCRF-CEM leukemia it was 0.058 µM; in the assay on HOP-62 NSCLC, 28.9 µM; in the assay on OVCAR-3 ovarian, 3.49 µM. Moreover, the GI50 is 2.37 µM in the assay with A498 renal and 6.88 µM in the assay on SNB-19 CNS. For the same compound, the TGI stood at 4.31 µM in the assay with MALME-3M melanoma; 6.15 µM in the assay with HCC-2998 colon; 17.9 µM with HCT-116 colon; 1.02 µM with CCRF-CEM leukemia; 43.7 µM with HOP-62 NSCLC; 12.5 µM in the assay with OVCAR-3 ovarian. For the same compound, the TGI came out at 5.3 µM in the assay on A498 renal and 19.5 µM with SNB-19 CNS.

The record behind these values is PubChem BioAssay (NCI).
